BindingDB's records for doi:10.1021/jm950639r (Eli Lilly, 1996)

Tests used:
Test in all cases: HIV-1 RT Assay
[1] = biological target: T1, Gag-Pol polyprotein [588-1127,L687I]/[588-1147,L687I] (Human immunodeficiency virus 1, UniProt P04585, L687I)
T1 construct: 588-1127; 588-1147

[2] = biological target: T2, Gag-Pol polyprotein [588-1027]/[588-1147] (Human immunodeficiency virus 1, UniProt P04585)
T2 construct: 588-1027; 588-1147

[3] = biological target: T3, Gag-Pol polyprotein [588-1127,Y768C]/[588-1147,Y768C] (Human immunodeficiency virus 1, UniProt P04585, Y768C)
T3 construct: 588-1127; 588-1147

Compound	IC50 [1] [µM]	IC50 [3] [µM]	other results
S=C(NCCc1c[nH]c2ccccc12)Nc1ccc(Br)cn1 [1-(5-bromopyridin-2-yl)-3-[2-(1H-indol-3-yl)ethyl]thiourea]	> 2.5		
CCOc1ccc(OCC)c(CCNC(=S)Nc2ccc(Br)cn2)c1 [1-(5-bromopyridin-2-yl)-3-[2-(2,5-diethoxyphenyl)ethyl]thiourea]			IC50 [2]: 0.018 µM
Cc1cc2nn(CCNC(=S)Nc3ccc(Br)cn3)nc2cc1C [1-(5-bromopyridin-2-yl)-3-[2-(5,6-dimethyl-2H-1,2,3-benzotriazol-2-yl)ethyl]thiourea]	> 2.5	0.1	
COc1ccc2[nH]cc(CC/N=C(\S)Nc3ccc(Br)cn3)c2c1 [1-(5-bromopyridin-2-yl)-3-[2-(5-methoxy-1H-indol-3-yl)ethyl]thiourea]	> 2.5		
COCc1ccc(F)c(CCNC(=S)Nc2ccc(Br)cn2)c1F [1-(5-bromopyridin-2-yl)-3-{2-[2,6-difluoro-3-(methoxymethyl)phenyl]ethyl}thiourea]			IC50 ([3]; pH 7.8, 37 °C): 0.1 µM
CCOc1ccc(F)c(CCNC(=S)Nc2ncc(C(F)(F)F)s2)c1Cl [1-[2-(2-chloro-3-ethoxy-6-fluorophenyl)ethyl]-3-[5-(trifluoromethyl)-1,3-thiazol-2-yl]thiourea]	7	7	IC50 [2]: 0.047 µM
CNC(=O)c1ccc(F)c(CC/N=C(\S)Nc2ccc(Br)cn2)c1F [3-(2-{[(5-bromopyridin-2-yl)carbamothioyl]amino}ethyl)-2,4-difluoro-N-methylbenzamide]			IC50 ([3]; pH 7.8, 37 °C): > 2 µM; IC50 ([1]; pH 7.8, 37 °C): > 2 µM
S=C(NCCn1nc2ccccc2n1)Nc1ccc(Br)cn1 [3-[2-(2H-1,2,3-benzotriazol-2-yl)ethyl]-1-(5-bromopyridin-2-yl)thiourea]		0.1	
CC(C)=CCN1Cc2cc(Cl)cc3[nH]c(=S)n(c23)C[C@@H]1C [(11S)-6-chloro-11-methyl-10-(3-methylbut-2-en-1-yl)-1,3,10-triazatricyclo[6.4.1.0^{4,13}]trideca-4,6,8(13)-triene-2-thione]	32.2	13	
S=C(NCCc1nc2ccccc2[nH]1)Nc1ccc(Br)cn1 [N-[2-(2-Benzimidazolyl)ethyl]-N-[2-(5-bromopyridyl)]-thiourea]	> 2.5	1.86	IC50 [2]: 0.021 µM
CC(=O)NCc1ccc(F)c(CCNC(=S)Nc2ccc(Br)cn2)c1F [N-[2-(3-(Acetamidomethyl)-2,6-difluorophenethyl)]-N-[2-(5-bromopyridyl)]thiourea]			IC50 ([3]; pH 7.8, 37 °C): > 2 µM; IC50 ([1]; pH 7.8, 37 °C): > 2 µM
